Reference: the NIST ThermoML archive (doi:10.1016/j.tca.2005.06.011)
± gives the expanded uncertainty stated by the source.

Assay: excess molar enthalpy (molar enthalpy of mixing); xn = mol fraction of the nth substance listed
Details: 298.15 K, 101 kPa, Liquid, Flow calorimetry

CC(C)O [propan-2-ol] + CCCO
excess molar enthalpy (x2 = 0.2499): -0.00906 ± 0.000263 kcal/mol
excess molar enthalpy (x2 = 0.5): -0.0108 ± 0.000263 kcal/mol
excess molar enthalpy (x2 = 0.75): -0.00837 ± 0.000239 kcal/mol
